Data set [1] addresses T1, human kinin B2R (Homo sapiens, UniProt P30411).
T1 construct: expressed in transfected cells
T1 sequence (P30411 1-391): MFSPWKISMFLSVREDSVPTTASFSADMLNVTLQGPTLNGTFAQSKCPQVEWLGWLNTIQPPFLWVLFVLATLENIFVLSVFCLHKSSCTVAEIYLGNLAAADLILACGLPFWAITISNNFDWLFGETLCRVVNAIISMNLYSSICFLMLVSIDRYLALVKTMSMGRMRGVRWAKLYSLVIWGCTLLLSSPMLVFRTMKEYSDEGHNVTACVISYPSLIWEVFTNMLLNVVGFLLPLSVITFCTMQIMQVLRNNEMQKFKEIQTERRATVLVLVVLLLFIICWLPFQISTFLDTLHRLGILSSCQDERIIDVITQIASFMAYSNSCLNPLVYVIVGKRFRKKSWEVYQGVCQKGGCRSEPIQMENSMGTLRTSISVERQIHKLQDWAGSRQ
Kind of data set: Competition binding assay on HEK293 cells stably expressing human kinin B2R, radioligand [3H]BK. The following applies: displacement of [3H]BK, read-out: hB2R IC50. Here is the method: (§1) Competition binding assays were carried out essentially as described previously. Briefly, HEK293 cells stably expressing either human kinin B1R or B2R were grown in 24-well plates and incubated with 4 nM [^3H]Lys[[…]]desArg^9BK (for B1R) or with 1 nM [^3H]BK/well (for B2R) in serum-free DMEM for 1-2 h in the absence or presence of increasing concentrations of competitors ([…]-10^-5 M for peptides; 10^-10-10^-4 g/mL for peptides-coupled NPs). Radioactivity of samples was measured by a β-scintillation counter (PerkinElmer, Woodbridge, ON, Canada). Binding affinities of compounds were expressed in terms of IC50 values-the concentrations of competing compounds (i.e., free peptides, TMC-peptides conjugates and peptides coupled to NPs) causing 50% displacement of specific binding of the radioligand. Data are means of 2-3 independent experiments.
For orientation: In a radioligand displacement assay an active substance lowers the binding of a labelled ligand.

For data set [2], the target named is T2, human kinin B1R (Homo sapiens, UniProt P46663).
T2 construct: expressed in transfected cells
T2 sequence (P46663 1-353): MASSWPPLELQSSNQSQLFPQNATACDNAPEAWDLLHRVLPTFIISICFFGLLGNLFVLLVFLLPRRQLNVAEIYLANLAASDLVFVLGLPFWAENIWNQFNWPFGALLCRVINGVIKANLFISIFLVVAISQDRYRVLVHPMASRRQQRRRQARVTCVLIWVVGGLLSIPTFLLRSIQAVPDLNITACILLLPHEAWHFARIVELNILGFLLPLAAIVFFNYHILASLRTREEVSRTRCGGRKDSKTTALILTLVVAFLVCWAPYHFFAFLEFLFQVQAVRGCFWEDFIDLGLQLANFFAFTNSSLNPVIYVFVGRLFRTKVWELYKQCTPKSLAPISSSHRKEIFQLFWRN
As to the kind of experiment: Competition binding assay on HEK293 cells stably expressing human kinin B1R, radioligand [3H]Lys[Leu8]desArg9BK. The settings on record: displacement of radioligand, read-out: hB1R IC50. Here is the method: as §1

On the set-up of data set [3]: method as in PMID 30837797. The settings on record: in rodents; cited from earlier work.

The text below walks through data of PMC10343654, “Evaluation of Novel B1R/B2R Agonists Containing TRIOZAN™ Nanoparticles for Targeted Brain Delivery of Antibodies in a Mouse Model of Alzheimer Disease” (Molecules, 2023).

Square brackets hold non-standard residues; d marks the D form. Peptide text beside a SMILES is read from it. ξ: configuration not given here. Oic = O=C(O)[C@@H]1C[C@@H]2CCCC[C@@H]2N1; d2Nal = N[C@H](Cc1ccc2ccccc2c1)C(=O)O; Hyp = O=C(O)[C@@H]1C[C@@H](O)CN1; 2Thi = N[C@@H](Cc1cccs1)C(=O)O; Gly(N-cHex) = O=C(O)CNC1CCCCC1; ξαMeF = CC(N)(Cc1ccccc1)C(=O)O; Orn = NCCC[C@H](N)C(=O)O; βAla = NCCC(=O)O; Mpa = O=C(O)CCS

`N=C(N)NCCC[C@H](NC(=O)[C@H](Cc1cccs1)NC(=O)CN(C(=O)[C@H](CO)NC(=O)[C@H](Cc1cccs1)NC(=O)CNC(=O)[C@@H]1C[C@@H](O)CN1C(=O)[C@@H]1CCCN1C(=O)[C@H](CCCNC(=N)N)NC(=O)CCNC(=O)CCS)C1CCCCC1)C(=O)O` [MAB7053, Mpa-βAla-Arg-Pro-Hyp-Gly-Thi-Ser-^NChg-Thi-Arg-OH] ([Mpa][βAla]RP[Hyp]G[2Thi]S[Gly(N-cHex)][2Thi]R-OH): the IC50 in data set [1] was 1180 nM.
With `N=C(N)NCCC[C@H](NC(=O)[C@H](CCCCN)NC(=O)CCNC(=O)CCS)C(=O)N1CCC[C@H]1C(=O)N1CCC[C@H]1C(=O)NCC(=O)N[C@@H](Cc1ccccc1)C(=O)N[C@@H](CO)C(=O)N1CCC[C@H]1C(=O)N[C@H](Cc1ccccc1)C(=O)O` [MAB7108, Mpa-βAla-Lys-Arg-Pro-Pro-Gly-Phe-Ser-Pro-DPhe-OH], in data set [2], the IC50 came to 0.8 nM.
In the case of `CC[C@H](C)[C@H](NC(=O)[C@@H](Cc1ccc2ccccc2c1)NC(=O)[C@H](CO)NC(=O)C(C)(Cc1ccccc1)NC(=O)CNC(=O)[C@@H]1CCCN1C(=O)[C@@H]1C[C@@H]2CCCC[C@@H]2N1C(=O)[C@H](CCCNC(=N)N)NC(=O)[C@H](CCCN)NC(=O)CCNC(=O)CCS)C(=O)O` (stereo partly drawn) [MAB7122, Mpa-βAla-Orn-Arg-Oic-Pro-Gly-(αMe)Phe-Ser-DβNal-Ile-OH] ([Mpa][βAla][Orn]R[Oic]PG[ξαMeF]S[d2Nal]I-OH), the 50% inhibitory concentration (IC50) in data set [2] stood at 10 nM.
Consider `CNCC(=O)N[C@@H](CCCCN)C(=O)N[C@@H](CCCNC(=N)N)C(=O)N1CCC[C@H]1C(=O)N1CCC[C@H]1C(=O)NCC(=O)N[C@@H](Cc1ccccc1)C(=O)N[C@@H](CO)C(=O)N1CCC[C@H]1C(=O)N[C@H](Cc1ccccc1)C(=O)O` [NG29, Sar-Lys-Arg-Pro-Pro-Gly-Phe-Ser-Pro-DPhe-OH], for which the 50% inhibitory concentration (IC50) in data set [2] is 0.5 nM; in data set [1], over 10000 nM.
Taken in the same sequence, the figures for `N=C(N)NCCC[C@H](NC(=O)[C@H](Cc1cccs1)NC(=O)CN(C(=O)[C@H](CO)NC(=O)[C@H](Cc1cccs1)NC(=O)CNC(=O)[C@@H]1C[C@@H](O)CN1C(=O)[C@@H]1CCCN1C(=O)[C@@H](N)CCCNC(=N)N)C1CCCCC1)C(=O)O` [NG291, H-Arg-Pro-Hyp-Gly-Thi-Ser-^NChg-Thi-Arg-OH] (H-RP[Hyp]G[2Thi]S[Gly(N-cHex)][2Thi]R-OH) were over 10000 nM and 2 nM.
As to `CC[C@H](C)[C@H](NC(=O)[C@@H](Cc1ccc2ccccc2c1)NC(=O)[C@H](CO)NC(=O)C(C)(Cc1ccccc1)NC(=O)CNC(=O)[C@@H]1CCCN1C(=O)[C@@H]1C[C@@H]2CCCC[C@@H]2N1C(=O)[C@H](CCCNC(=N)N)NC(=O)[C@H](CCCN)NC(C)=O)C(=O)O` (stereo partly drawn) [R954, AcOrn-Arg-Oic-Pro-Gly-(αMe)Phe-Ser-DβNal-Ile-OH] (Ac-[Orn]R[Oic]PG[ξαMeF]S[d2Nal]I-OH), the 50% inhibitory concentration (IC50) in data set [2] was 2 nM; in data set [1] it was over 10000 nM.
As to “TRIOZAN™-MAB7053: TRIOZAN (trimethyl chitosan) conjugated with 7 equivalents of B2R agonist peptide MAB7053 (RPPGXSXXR; Residue 3 is Hyp (trans-4-hydroxy-L-Pro); residues 5 and 8 are Thi (alpha-(2-thienyl)-L-Ala); residue 7 is N-cyclohexyl-Gly; free C-terminal acid; N-terminal Mpa-betaAla spacer, thioether-linked via M)”, in data set [1], the 50% inhibitory concentration (IC50) is 10600 nM.

B1: ANX-005: C1q function blocking humanized IgG4 mAb (Annexon Biosciences) (antibody, chains of the INN, looked up, V domains shown)
VH: QVQLVQSGAELKKPGASVKVSCKSSGYHFTSYWMHWVKQAPGQGLEWIGVIHPNSGSINYNEKFESRVTITVDKSTSTAYMELSSLRSEDTAVYYCAGERDSTEVLPMDYWGQGTTVTVSS
VL: DVQITQSPSSLSASLGERATINCRASKSINKYLAWYQQKPGKAPKLLIYSGSTLQSGIPARFSGSGSGTDFTLTISSLEPEDFAMYYCQQHNEYPLTFGQGTKLEIK
As to B1, in data set [3], the “half-life (t½)” value is ~ 18 h.

Usually IC50 stands for the concentration at which inhibition is half-maximal.
